Reference: PMC7156736, “Phase 1 study of the pan-HER inhibitor dacomitinib plus the MEK1/2 inhibitor PD-0325901 in patients with KRAS-mutation-positive colorectal, non-small-cell lung and pancreatic cancer” (British Journal of Cancer, 2020)
Like-named read-outs stand apart in the source and are kept apart here.

What was measured:
[1] = plasma pharmacokinetics in patients (HPLC–MS/MS, non-compartmental analysis); assay type: in vivo, human; settings: for AUC(0-t): read-out: AUC0-12h PD-0325901, mean (CV%); for Cmax: read-out: Cmax PD-0325901, mean (CV%)
Description: For pharmacokinetic analyses, serial blood samples were obtained from all patients prior to treatment administration on day 1, and 1, 2, 3, 4, 6, 8, 12, 24, 72 and 144 h after the first dose. On day 1 of cycle 2, blood samples were drawn before and 1, 2, 3, 4, 6, 8, 12 and 24 h after administration. Plasma samples were assayed using a validated high-performance liquid chromatography– tandem mass spectrometry method (HPLC–MS/MS). Briefly, dacomitinib and PD-0325901 were extracted from plasma by protein precipitation with a mixture of acetonitrile/methanol (1:1 v/v). Compounds were chromatographically separated using a Waters Xbridge BEH Phenyl column (50 ×2.1-mm ID, 5-μm particle size), and detection was performed using an API4000 tandem mass spectrometer equipped with a turbo ion spray interface, operating in the positive ion mode. Transitions from m/z 480 to 329 and m/z 489 to 255 were monitored for the detection of dacomitinib and PD-0325901, respectively. Stable isotope-labelled internal standards were used for the quantification. The lower and upper limits of quantification were, respectively, 0.5 and 50 ng/ml for dacomitinib, and 5 and 500 ng/ml for PD-0325901. Pharmacokinetic parameters were calculated in R using an in-house-developed validated script for non-compartmental pharmacokinetic analyses (version 3.6.0).[9]

[2] = system: patients with KRASm CRC, NSCLC or pancreatic cancer; assay type: in vivo; settings: dacomitinib QD continuous, PD-0325901 BID 21 days on/7 days off
Description: . The starting doses were based on previous data from single-agent Phase 1 studies with both compounds, taking into account the potential for synergistic toxicity. […]. Dose-escalation decisions were based on safety evaluation of all evaluable patients, performed after completion of the first treatment cycle. Patients were considered evaluable for the dose-determining part of this study if at least one cycle of study treatment was completed, with the minimum safety evaluation conducted, and at least one administration of both drugs received, or if dose-limiting toxicity (DLT) had occurred during the first cycle. If one out of three patients experienced a DLT, the number of patients treated at that dose level was expanded to a maximum of six. […] Patients were continuing study treatment until disease progression, unacceptable toxicity or investigator/patient decision to discontinue.
Safety was monitored throughout the treatment by physical examination, laboratory assessments, electrocardiography, ophthalmic evaluation and collection of adverse events. Adverse events were recorded according to the Common Terminology Criteria for Adverse Events version 4.0. All adverse events that were possible, probable or definite related to study drug were considered as study/treatment related. […]

[3] = system: patients with advanced cancers; set-up: method as in PMID 20215549; settings: BID, continuous schedule; cited from earlier work
[4] = Dose-level 2: dacomitinib 15 mg QD + PD-0325901 3 mg BID, Cycle 1 Day 1, n = 6
[5] = human, plasma, oral, 6 mg, All 6 mg doses, Cycle 1 Day 1, n = 14
[6] = human, plasma, oral, 6 mg, All 6 mg doses, Cycle 2 Day 1 or last day of concomitant use, n = 6
[7] = human, plasma, oral, Dose-level 1: dacomitinib 30 mg QD + PD-0325901 2 mg BID, Cycle 1 Day 1, n = 6
[8] = human, plasma, oral, Dose-level 1: dacomitinib 30 mg QD + PD-0325901 2 mg BID, Cycle 2 Day 1, n = 6
[9] = human, plasma, oral, Dose-level 2: dacomitinib 15 mg QD + PD-0325901 3 mg BID, Cycle 2 Day 1, n = 5
[10] = human, plasma, oral, Dose-level 3: dacomitinib 15 mg QD + PD-0325901 4 mg BID, Cycle 1 Day 1, n = 2
[11] = human, plasma, oral, Dose-level 3: dacomitinib 15 mg QD + PD-0325901 4 mg BID, Cycle 2 Day 1, n = 2
[12] = human, plasma, oral, Dose-level 4: dacomitinib 15 mg QD + PD-0325901 5 mg BID, Cycle 1 Day 1, n = 3
[13] = human, plasma, oral, Dose-level 4: dacomitinib 15 mg QD + PD-0325901 5 mg BID, Cycle 2 Day 1, n = 4
[14] = human, plasma, oral, Dose-level 5: dacomitinib 15 mg QD + PD-0325901 6 mg BID, Cycle 1 Day 1, n = 8
[15] = human, plasma, oral, Dose-level 5: dacomitinib 15 mg QD + PD-0325901 6 mg BID, Cycle 2 Day 1, n = 5
[16] = human, plasma, oral, Dose-level 6: dacomitinib 30 mg (4/3) QD + PD-0325901 6 mg BID, Cycle 1 Day 1, n = 3
[17] = human, plasma, oral, Dose-level 6: dacomitinib 30 mg (4/3) QD + PD-0325901 6 mg BID, last day of concomitant use of both drugs, n = 1
[18] = human, plasma, oral, Dose-level 7: dacomitinib 30 mg (5/2) QD + PD-0325901 6 mg (5/2) BID, Cycle 1 Day 1, n = 3
[19] = human, plasma, oral, Dose-level 7: dacomitinib 30 mg (5/2) QD + PD-0325901 6 mg (5/2) BID, last day of concomitant use of both drugs, n = 2
[20] = human, plasma, oral, Dose-level 8: dacomitinib 30 mg (5/2) QD + PD-0325901 5 mg (5/2) BID, Cycle 1 Day 1, n = 4
[21] = human, plasma, oral, Dose-level 8: dacomitinib 30 mg (5/2) QD + PD-0325901 5 mg (5/2) BID, last day of concomitant use of both drugs, n=2
[22] = human, plasma, oral, Dose-level -1: dacomitinib 15 mg QD + PD-0325901 2 mg BID, Cycle 1 Day 1, n = 4
[23] = human, plasma, oral, Dose-level -1: dacomitinib 15 mg QD + PD-0325901 2 mg BID, Cycle 2 Day 1, n = 3
[24] = patients, combination treatment

## O=C(NOC[C@H](O)CO)c1ccc(F)c(F)c1Nc1ccc(I)cc1F [PD-0325901]
[1]; All 6 mg doses, Cycle 1 Day 1, n = 14
  tmax PD-0325901, mean: 1.5 h
[1]; All 6 mg doses, Cycle 2 Day 1 or last day of concomitant use, n = 6
  tmax PD-0325901, mean: 2.2 h
[1]; Dose-level 1: dacomitinib 30 mg QD + PD-0325901 2 mg BID, Cycle 1 Day 1, n = 6
  tmax PD-0325901, mean: 1.2 h
[1]; Dose-level 1: dacomitinib 30 mg QD + PD-0325901 2 mg BID, Cycle 2 Day 1, n = 6
  tmax PD-0325901, mean: 1.5 h
[1]; [4]
  AUC0-12h PD-0325901, mean (CV%): 273 (15) ng*h/ml
  tmax PD-0325901, mean: 1.2 h
[1]; Dose-level 2: dacomitinib 15 mg QD + PD-0325901 3 mg BID, Cycle 2 Day 1, n = 5
  tmax PD-0325901, mean: 2.2 h
[1]; Dose-level 4: dacomitinib 15 mg QD + PD-0325901 5 mg BID, Cycle 1 Day 1, n = 3
  tmax PD-0325901, mean: 1.4 h
[1]; Dose-level 5: dacomitinib 15 mg QD + PD-0325901 6 mg BID, Cycle 1 Day 1, n = 8
  tmax PD-0325901, mean: 1.4 h
[1]; Dose-level 5: dacomitinib 15 mg QD + PD-0325901 6 mg BID, Cycle 2 Day 1, n = 5
  tmax PD-0325901, mean: 1.2 h
[1]; Dose-level 6: dacomitinib 30 mg (4/3) QD + PD-0325901 6 mg BID, Cycle 1 Day 1, n = 3
  tmax PD-0325901, mean: 1.3 h
[1]; Dose-level 7: dacomitinib 30 mg (5/2) QD + PD-0325901 6 mg (5/2) BID, Cycle 1 Day 1, n = 3
  tmax PD-0325901, mean: 1.3 h
[1]; Dose-level 8: dacomitinib 30 mg (5/2) QD + PD-0325901 5 mg (5/2) BID, Cycle 1 Day 1, n = 4
  tmax PD-0325901, mean: 1.5 h
[1]; Dose-level -1: dacomitinib 15 mg QD + PD-0325901 2 mg BID, Cycle 1 Day 1, n = 4
  tmax PD-0325901, mean: 1.3 h
[1]; Dose-level -1: dacomitinib 15 mg QD + PD-0325901 2 mg BID, Cycle 2 Day 1, n = 3
  tmax PD-0325901, mean: 1.1 h
[1]; PD-0325901 doses of 5 and 6 mg, during the entire dose interval
  plasma concentration versus target level (16.5 ng/ml): exceeded the target level
[1]; across dose levels
  increase of exposure with dose: approximately dose-proportionally
[1]; [5]
  AUC(0-t): 706 ng·h/mL
  Cmax: 227 ng/mL
[1]; [6]
  AUC(0-t): 954 ng·h/mL
  Cmax: 217 ng/mL
[1]; [7]
  AUC(0-t): 188 ng·h/mL
  Cmax: 68.7 ng/mL
[1]; [8]
  AUC(0-t): 210 ng·h/mL
  Cmax: 58.3 ng/mL
[1]; human, plasma, oral, Dose-level 2: dacomitinib 15 mg QD + PD-0325901 3 mg BID, Cycle 1 Day 1, n = 6
  Cmax: 85 ng/mL
[1]; [9]
  AUC(0-t): 279 ng·h/mL
  Cmax: 73.8 ng/mL
[1]; [10]
  AUC(0-t): 452 ng·h/mL
  Cmax: 106 ng/mL
[1]; [11]
  AUC(0-t): 376 ng·h/mL
  Cmax: 125 ng/mL
[1]; [12]
  AUC(0-t): 552 ng·h/mL
  Cmax: 179 ng/mL
[1]; [13]
  AUC(0-t): 638 ng·h/mL
  Cmax: 229 ng/mL
[1]; [14]
  AUC(0-t): 822 ng·h/mL
  Cmax: 262 ng/mL
[1]; [15]
  AUC(0-t): 855 ng·h/mL
  Cmax: 242 ng/mL
[1]; [16]
  AUC(0-t): 635 ng·h/mL
  Cmax: 192 ng/mL
[1]; [17]
  AUC(0-t): 1340 ng·h/mL
  Cmax: 254 ng/mL
[1]; [18]
  AUC(0-t): 635 ng·h/mL
  Cmax: 192 ng/mL
[1]; [19]
  AUC(0-t): 406 ng·h/mL
  Cmax: 56 ng/mL
[1]; human, plasma, oral, Dose-level 7: dacomitinib 30 mg (5/2) QD + PD-0325901 6 mg (5/2) BID, last day of concomitant use of both drugs, n = 2, read-out: tmax PD-0325901, mean
  Tmax: 4.5 h
[1]; [20]
  AUC(0-t): 463 ng·h/mL
  Cmax: 134 ng/mL
[1]; [21]
  AUC(0-t): 667 ng·h/mL
  Cmax: 155 ng/mL
[1]; [22]
  AUC(0-t): 160 ng·h/mL
  Cmax: 43.7 ng/mL
[1]; [23]
  AUC(0-t): 145 ng·h/mL
  Cmax: 47.7 ng/mL
[1]; human, plasma, oral, patients, combination treatment, read-out: half-life, range
  half-life: 5 to 9.9 h
[1]; [24]
  accumulation after multiple doses (AUC and Cmax): minimal accumulation
  half-life, mean: 7.7 h
[2]
  recommended Phase 2 dose (RP2D) / established maximum dose level in the combination with continuous dacomitinib dosing: 6 mg
[3]
  formal single-agent RP2D: 10 mg
